Tests used:
[1] = tested on: recombinant human IL-2; assay: Recombinant human IL-2 induced mouse thymocyte proliferation; assay type: cell-based; details: 10 ng/ml rh IL-2
Procedure: (§1) Lymphocyte proliferation is the standard test for monokine activity. It is highly sensitive, though relatively unspecific, with IL-2, phorbol myristate acetate, concanavalin A' g-type-prostaglandin and indomethacin-nall effecting disturbance. Human monocyte culture media are prepared as described under I.I.b. above, diluted 1:10, 1:20 and 1:40 (v:v), and added to […] (obtained from C3H/HeJ mice) Dulbecco's modified Eagle's medium, containing 20 mM hydroxyethyl-piperazin-ethane-sulfonic acid, 12 mM NaHCO3, 2 mM glutamine, 2% foetal bovine serum, 10 μM 2-mercaptoethanol, […] and antibiotics. The cells are incubated for 2 days in 96-well culture plates and the proliferation rate determined using a ^3 H-thymidine pulse (1 μC/well) during the final 6 hours. The incorporated radioactivity is collected on filter paper and counted. […] Thus determined ED50 s for the compounds D2 and K1 each in substantially pure Z-isomeric form in a series of 2 separate experiments each with 3 parallel determinations are of the order of 30 μM
(§2) In order to rule out an antagonistic effect or a direct influence of the COMPOUNDS OF THE INVENTION on the proliferation of mouse thymocytes which are used above in the LAF-test, the effect of the COMPOUNDS OF THE INVENTION on the incorporation of ^3 H-thymidine Is determined after thymocyte stimulation with recombinant human IL-1 or IL-2.

[2] = tested on: recombinant human IL-1; assay: Recombinant human IL-1 induced mouse thymocyte proliferation; assay type: cell-based; details: 75 ng/ml rh IL-1
Procedure: as §1, §2

[3] = tested on: human monocytes; assay: Effect on the secretion of monokines (IL-1, TNF-α, IL-6); assay type: cell-based; details: IL-1 and TNF-α by RIA, IL-6 by bioassay
Procedure: Besides IL-1, TNF-α and IL-6 are two well recognized monokines that are released from stimulated monocytes.
Culture media from human monocytes are prepared as described above. The IL-1 and TNF-α content is monitored by the RIA-test, IL-6 by bioassay as disclosed below.
To measure IL-6 in conditioned media from human monocytes, 2.4×10^4 cells/ml B13.29 in 0.2 ml are cultured on 96-well plates (Costar) for 48 h with culture media, diluted in serum free Iscove's modified Dulbecco's medium supplemented with 200 U/ml of recombinant IL-6, 50 μM 2-mercaptoethanol and antibiotics. The proliferation rates are determined using a ^3 H-thymidine pulse (1 μC/well) during the final 6 h. The incorporated radioactivity is collected on filter paper, counted and related to a standard preparation of IL-6.

[4] = tested on: lysozyme; assay: Secretion of lysozyme from human monocytes; assay type: cell-based; details: human monocyte culture media
Procedure: Culture media from human monocytes are prepared as disclosed above. Lysozyme and lactate dehydrogenase (LDH) are monitored kinetically by using a Twinreader (Flow Laboratories AG) linked to a personal computer. Samples (50 μl) for LOH are mixed with 200 μl substrate mixture, containing in final concentrations 50 mM phosphate buffer, pH 7.5, 0.8 mM sodium pyruvate, 0.24 mM NADH and 0.04 % bovine albumin and the changes in absorbance at 340 nm are measured 11 times at 1-min intervals. The computer calculates the initial velocities which are used to determine the units. Samples (50 μl) for lysozyme are mixed with 100 μl suspension of 1.2 mg/ml M. Lysodeikticus in 67 mM phosphate buffer pH 6.2 and the changes in turbidity at 492 nm monitored 11 times at 4-min intervals. With every assay series, a calibration curve is made with crystalline hen egg-white lysozyme [J. Schnyder et.al., J. Exp. Med. 148, 435 (1978)]. No significant leakage of LDH from control and treated cell cultures is observed.

[5] = tested on: adjuvant arthritis; assay: Disease modifying activity in an animal model of rheumatoid arthritis (adjuvant arthritis); assay type: in vivo, rat; details: substantially pure Z-isomeric form
Procedure: Following induction of adjuvant arthritis in 48 adult female rats, the test compound is administered orally for 40 days. Articular swelling and bone densitometry are measured at days 10, 20, 30 and 40 and compared with control animals receiving placebo. In addition, cartilage glycosaminoglycans (GAG) are measured in femoral condyles removed on completion of the treatment period. α2 -Macroglobulin is determined in serum on days 0, 3, 6, 9, 16 and 22.
The procedure for in vivo estimation of bone density in adult rats as used in the above test method is based on the radiographic densitometric method described by Albanese et al. in J. Amer. Ger. Soc. 17, 142-153 (1969). A longitudinal bone survey is conducted in the arthritic rats during the treatment with the test substance and compared with untreated arthritic rats and control animals. In vivo quantitative radiographic scanning is performed taking the trabecular mass as the parameter. […] Because of the characteristics of the system (image darkening representing increased Relative Optical Density) the recorded values are expressed as (1-x) where x Is the experimentally measured ROD in order to conform to the biological effect of X-rays on bone tissue (i.e. film darkening indicates decrease in bone density). […]

[6] = tested on: periodontal disease; assay: Clinical trial III: calcium resorption - periodontal disease; assay type: in vivo, human; details: ca. 400 to 1200 mg p.o./day or injection ca. 0.5 or 1.0 to 5.0 mg per gum pouch; after ca. 2 to 3 weeks
Procedure: COMPOUND OF THE INVENTION, e.g. compound D2 or K1 in substantially pure Z-isomeric form, is administered at dosages of from ca. 400 to 1200 mg/p.o./day administered once or in divided dosages up to 4x daily, or by injection into the gum at the site of disease at dosages of the order of about 0.5 or 1.0 to about 5.0 mg into each gum pouch. The subjects are examined at regular weekly or 2x weekly intervals for disease progression.

[7] = Acute toxicity (LD50) in mice; details: mouse, in vivo, substantially pure Z-isomeric form
[8] = Acute toxicity (LD50) in rats; details: rat, in vivo, substantially pure Z-isomeric form
[9] = tested on: beagle dogs; assay: Tolerability / pilot toxicology in beagle dogs; assay type: in vivo; details: up to 200 mg/kg/day for 26 weeks
[10] = 3H-thymidine incorporation, mouse thymocytes

For `COC1=Cc2ccccc2/C(=C/C(=O)O)c2ccsc21` [Compound D2, [10-Methoxy-4H-benzo[4,5]cyclohepta[1,2-b]thiophen-4-ylidene]-acetic acid], the “concentration dependency of influence on rh IL-2 induced proliferation” value [1] was “no concentration dependency is detectable”, the “influence on recombinant human IL-2 induced proliferation” value [1, 10] was “no significant influence” and the “concentration dependency of influence on rh IL-1 induced proliferation” value [2] was “no concentration dependency is detectable”. The “influence on recombinant human IL-1 induced proliferation” value [2, 10] was “no significant influence”, the “inhibition of release of IL-1 compared with IL-6 and TNF-α” value [3] was “inhibit the release of IL-1 in a more significant rate than that of IL-6 and TNF-α” and the release of lysozyme [4] was “reduces the release of lysozyme only marginally and not under the level of unstimulated controls”. The “protective effect on cartilage and bone” value ([5]; rats with adjuvant arthritis) was “show a protective effect on cartilage and bone in rats with adjuvant arthritis”, the disease modifying activity ([5]; especially after 30 days treatment) was “exhibit disease modifying activity especially after a period of 30 days treatment” and the “condition (periodontal disease)” value [6] was “marked improvement in condition after ca. 2 to 3 weeks continuous therapy”. The LD50 at 168 h ([7]; iv, 7 days) was 163 mg/kg, the LD50 at 336 h ([7]; po, 14 days) was 1620 mg/kg and the LD50 at 168 h ([8]; iv, 7 days) was 50 mg/kg. The LD50 at 336 h ([8]; po, 14 days) was 1720 mg/kg and the tolerability [9] was “generally well tolerated”.

From patent US4956381A, “Treating tissue calcium depletion or degenerative processes in bone or cartilage” (Sandoz Ltd., priority 1987, dated 1990)
